# Results as given in the supplement of paper PMC8671470.
# ± gives the standard deviation of the averaged measurements.
# System: HL-60
# Experiment: cell viability (% survival relative to DMSO control); higher = less cytotoxic
# Conditions: 72 h
# In short: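 HL-60 cells in RPMI 1640 with 10% FBS were rescreened against the full library on 384-well plates at five tenfold concentrations, 1–10,000 nM, in duplicate. Each screen was run with DMSO or 100 nM of one of three metabolic inhibitors, for 72 h at 37 °C, 5% CO2. Viability was read by CellTiter-Glo and normalised to DMSO and 10 μM proteasome-inhibitor wells. Where given, area under the curve came from four-parameter log-logistic fits (drc, PharmacoGx).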
# [1] = 0.001 µM, co-treatment: AZD3965 100 nM
# [2] = 0.001 µM, co-treatment: DMSO vehicle
# [3] = 0.001 µM, co-treatment: GSK2194069 100 nM
# [4] = 0.001 µM, co-treatment: pictilisib 100 nM
# [5] = 0.01 µM, co-treatment: AZD3965 100 nM
# [6] = 0.01 µM, co-treatment: DMSO vehicle
# [7] = 0.01 µM, co-treatment: GSK2194069 100 nM
# [8] = 0.01 µM, co-treatment: pictilisib 100 nM
# [9] = 0.1 µM, co-treatment: AZD3965 100 nM
# [10] = 0.1 µM, co-treatment: DMSO vehicle
# [11] = 0.1 µM, co-treatment: GSK2194069 100 nM
# [12] = 0.1 µM, co-treatment: pictilisib 100 nM
# [13] = 1 µM, co-treatment: AZD3965 100 nM
# [14] = 1 µM, co-treatment: DMSO vehicle
# [15] = 1 µM, co-treatment: GSK2194069 100 nM
# [16] = 1 µM, co-treatment: pictilisib 100 nM
# [17] = 10 µM, co-treatment: AZD3965 100 nM
# [18] = 10 µM, co-treatment: DMSO vehicle
# [19] = 10 µM, co-treatment: GSK2194069 100 nM
# [20] = 10 µM, co-treatment: pictilisib 100 nM
Structure (SMILES),cell viability [1] [%],cell viability [2] [%],cell viability [3] [%],cell viability [4] [%],cell viability [5] [%],cell viability [6] [%],cell viability [7] [%],cell viability [8] [%],cell viability [9] [%],cell viability [10] [%],cell viability [11] [%],cell viability [12] [%],cell viability [13] [%],cell viability [14] [%],cell viability [15] [%],cell viability [16] [%],cell viability [17] [%],cell viability [18] [%],cell viability [19] [%],cell viability [20] [%]
OCCN1CCN(CCCN2c3ccccc3Sc3ccc(Cl)cc32)CC1 [Perphenazine],101 ± 1.7,105 ± 2.5,98.1 ± 2.6,99.74 ± 0.41,99.4 ± 5.2,102 ± 1.6,101 ± 11,105 ± 2,107 ± 5.8,105 ± 4.4,95.1 ± 16,107 ± 8.5,98.6 ± 1.1,103.72 ± 0.059,97.5 ± 15,109 ± 5.6,86.3 ± 7,91.3 ± 5.4,55.4 ± 12,61.7 ± 8
C=CCc1ccc2c(c1O)C(=O)c1ccccc1C2=O [R162],106 ± 5.3,103 ± 1.6,102 ± 2.1,102 ± 18,99.12 ± 0.61,103 ± 3.5,103 ± 8.4,101 ± 10,104 ± 4.1,98.1 ± 2.4,98.5 ± 4.3,101 ± 7.5,102 ± 1.3,100.6 ± 0.84,100 ± 2.6,104 ± 2.5,106 ± 4.2,97.8 ± 2.4,97.07 ± 0.71,90.6 ± 9.3
O=C(c1ccc(OCCN2CCCCC2)cc1)c1c(-c2ccc(O)cc2)sc2cc(O)ccc12 [Raloxifene],93 ± 9.2,85.9 ± 11,79.1 ± 13,104.6 ± 0.91,91.9 ± 19,80.4 ± 24,80.5 ± 22,94.1 ± 9,98 ± 1.4,101 ± 2.3,93.3 ± 1.2,99.7 ± 8.1,101 ± 8.2,97.14 ± 0.84,87.1 ± 23,105 ± 2.5,100.7 ± 0.99,101 ± 1.9,70.9 ± 18,113 ± 9.9
NC(=O)c1ncn([C@@H]2O[C@H](CO)[C@@H](O)[C@H]2O)n1 [Ribavirin],100 ± 3.5,100.3 ± 0.67,92.1 ± 6.2,105 ± 7.1,100 ± 4.4,102 ± 1.6,76.6 ± 27,106 ± 5,99.2 ± 3.9,102 ± 3,94.1 ± 5.5,101 ± 3,99.8 ± 4.1,97.1 ± 3.6,90.1 ± 14,107 ± 3.6,106 ± 2.2,104 ± 4.4,90.4 ± 12,104 ± 3.7
Nc1ncnc2c1ncn2[C@@H]1O[C@H](CSCC[C@H](N)C(=O)O)[C@@H](O)[C@H]1O [S-Adenosyl Homocysteine],103 ± 18,97.1 ± 11,91.8 ± 36,108 ± 33,85.2 ± 20,93.3 ± 4.4,86.7 ± 12,78.6 ± 4.6,101 ± 3.4,98.6 ± 3.3,103 ± 8.4,102 ± 5.2,97.2 ± 3.1,98.5 ± 2.5,99.08 ± 0.63,97.8 ± 7,101.99 ± 0.033,99.4 ± 3.9,94.5 ± 13,98 ± 4.3
CCCc1nn(C)c2c(O)nc(-c3cc(S(=O)(=O)N4CCN(C)CC4)ccc3OCC)nc12 [Sildenafil],104 ± 6.6,88.1 ± 13,91.3 ± 6.8,79.6 ± 40,99.2 ± 1.4,98.4 ± 4.1,96.77 ± 0.75,102 ± 7.1,104.5 ± 0.69,106 ± 5.1,123 ± 12,117 ± 10,99.4 ± 4.6,103 ± 2.1,97.06 ± 0.92,93.6 ± 18,99.89 ± 0.83,102 ± 2.9,93 ± 1.7,94.7 ± 7.5
Cc1coc2c1C(=O)C(=O)c1c-2ccc2c(C)cccc12 [Tanshinone I],100.1 ± 0.2,97.288 ± 0.063,94.6 ± 6.6,97.1 ± 5.6,101 ± 1.8,103 ± 6.3,103.8 ± 0.31,104 ± 3.1,104 ± 9.7,101.8 ± 0.9,108 ± 12,101 ± 0.32,104 ± 1.6,103.5 ± 0.31,102 ± 4.4,103.6 ± 0.57,100.3 ± 0.27,97.2 ± 5.3,101 ± 1.4,106 ± 9.7
CCOC(=O)N1c2ccc(C(F)(F)F)cc2[C@@H](N(Cc2cc(C(F)(F)F)cc(C(F)(F)F)c2)C(=O)OC)C[C@H]1CC [Torcetrapib],101 ± 1.8,104.8 ± 1,101 ± 10,113 ± 16,98.6 ± 2.3,99.13 ± 0.66,104 ± 15,105 ± 22,97.5 ± 4,98.7 ± 8.2,88 ± 9.7,83.6 ± 18,97.7 ± 6.2,103 ± 6.9,94.9 ± 7.2,100 ± 4.2,98.8 ± 5.5,100 ± 1.6,95.4 ± 16,117 ± 21
Oc1cc(Cl)ccc1Oc1ccc(Cl)cc1Cl [Triclosan],100 ± 3.6,101 ± 2.6,102 ± 4.7,93.3 ± 13,104 ± 5.1,98.7 ± 7.6,107 ± 9.5,120 ± 9.4,96.5 ± 1.2,99.7 ± 1.2,95.3 ± 5.2,95.7 ± 12,94.9 ± 7.2,99.6 ± 1.5,105 ± 4.4,111 ± 3.4,103 ± 3.2,111 ± 4,99.7 ± 2.5,107.6 ± 0.22
COc1cc2c(NC3CCN(C)CC3)nc(N3CCCN(C)CC3)nc2cc1OCCCN(C)C [UNC0224],102 ± 2.2,104 ± 2.2,114 ± 13,101 ± 1.9,101 ± 5.6,103 ± 7.6,113 ± 31,108 ± 0.28,100 ± 1.5,102 ± 6.9,96.8 ± 5.5,102 ± 9.6,99.416 ± 0.052,101 ± 1.8,96.3 ± 3.7,103 ± 1.8,95.6 ± 0.11,93.3 ± 4.4,91.9 ± 6.9,74.8 ± 9.6
CC(C)C[C@H](NC(=O)[C@@H](O)[C@H](N)Cc1ccccc1)C(=O)O [Ubenimex],101 ± 4.3,104 ± 3.4,102 ± 3.6,99.1 ± 1.1,101 ± 11,103 ± 1.4,95.6 ± 11,93.2 ± 11,99.3 ± 9.9,102 ± 3.4,107 ± 2,104 ± 7.1,98.1 ± 2.2,97.6 ± 5.8,94 ± 4.7,79.3 ± 1.4,106 ± 2,95.3 ± 1.6,103 ± 5.7,98.8 ± 3.3
O=P(O)(O)C(O)(Cn1ccnc1)P(=O)(O)O [Zoledronic acid],102 ± 2.9,98.3 ± 11,91.7 ± 49,81.3 ± 24,101 ± 2.4,99.8 ± 2.5,92.3 ± 6.2,98.9 ± 1.2,102 ± 2.3,101 ± 1.7,95.8 ± 4.7,100 ± 9.7,101 ± 2.5,105.3 ± 0.2,103 ± 14,108 ± 12,98 ± 3.6,101 ± 5.2,80 ± 26,98 ± 7.6
